According to US4620014A, “2-furylbutyrolactones and methods for using same” (priority 1983, dated 1986):
Read-outs that look alike come from different tables or passages of the source.

Columns and labels:
[1] = system: FLC-745 cells; test: MLTC assay of CTL activity, FLC-745 target cells; type: cell-based
Source text: A mixed lymphocyte tumor culture (MLTC) immunoassay, used to determine the cytotoxic lymphocyte (CTL) activity employs lymphocytes from either immunized (sensitized) mice or DBA/2 tumor dormant state animals in various stages of the tumor dormant state (TDS). The assay employs L5178Y target cells labeled with ^51 Chromium and effector cells (sensitized lymphocytes) from the above-mentioned sources. Effector-target cell ratios will vary with different experimental conditions and may or may not include irradiated stimulator L5178Y cells. Results are expressed as % lysis of target cells based on ratio of cpm of test group over cpm of total release (maximum) both of which are corrected for spontaneous release of ^51 Cr. The assay can be performed as an 8 or 18 hour release assay.
An MLTC assay is performed to assess the CTL activity and tumor target cell specificity of Cpd. 1. Tumor dormant spleen cells and normal spleen cells of DBA/2 mice are used as effector cells. Irradiated L5178Y cells are used as stimulator cells. ^51 Cr-labeled L5178Y cells and FLC-745 cells are used as target cells. The effector/target ratios studied are 100:1, 30:1 and 10:1.

[2] = Dissolution in bicarbonate buffered saline; type: physicochemical; settings: 0.238 molar bicarbonate buffered saline (0.85%)
[3] = system: spleen lymphocytes of BALB/C mice; settings: 4 days
Protocol: (§1) The purpose of this assay is to challenge lymphocytes in microcultures with one or more polyclonal mitogens at concentrations that will induce mitogenesis within 72 hours of stimulation.
In the mouse model, spleens are removed from different strains of mice and the spleen cells are teased free and suspended in RPMI-1640 tissue culture medium at a concentration of usually 1×10^7 ml. These cells are dispensed at a concentration of 5.0×10^5 cells per microculture well in a 96 well flat bottom 96 well tissue culture plate. All testing of the compounds of this invention or mitogens are done in replicates of 10. The cells are then treated with PHA, Con-A, specific antigens, or buffer only. If in vitro testing is done, varying concentrations of the compounds of this invention or buffer only are added to the cells as well. After treatment with the mitogens and/or compounds of this invention, the cells are incubated for 72 hours. The response of these cells to mitogens and/or the compounds of this invention is assessed using ^14 C-thymidine labeling on the fourth day at a concentration of 0.01 μCi/well. The labeled cells are harvested using a lymphocyte harvestor and placed onto fibrous paper discs. […] The data is expressed as a ratio of the cpm of the mitogen stimulated group to the control (non-mitogen) treated group=lymphocyte stimulation index (LSI). […]

[4] = system: spleen lymphocytes of BSA-immunized C57BL/6 mice
Source text: The effect of the compounds of this invention on the immune response to specific antigens involves immunization of mice with specific anitgens such as bovine serum albumin (BSA) or keyhole limpet hemocyanin (KLH). Following immunization, it is possible to assess the cell-mediated or humoral (antibody) immune response to these antigens by various methods:
(1) Lymphocyte stimulation assays can be performed using varying concentrations of the specific antigens as mitogens in the lymphocyte stimulation microculture system described above. The only difference is that the incubation period is extended to five days instead of three as for the polyclonal mitogens.
Mice of the C57BL/6 strain are given i.p. injections of either 50, 100, 200 or 400 mg/kg of Cpd. 1 or buffer for twelve days (days 1-12). An antigen, bovine serum albumin (BSA), is administered intraperitoneally with Freund's Complete Adjuvant (FCA) on days 1, 7 and 14. Blood samples are taken for assay of the antibody response on days 0, 5, 13, and 19.

[5] = system: spleen lymphocytes of BDF1 mice; settings: 7 days
Protocol: as §1
In the mouse model, spleens are removed from different strains of mice and the spleen cells are teased free and suspended in RPMI-1640 tissue culture medium at a concentration of usually 1×10^7 ml. These cells are dispensed at a concentration of 5.0×10^5 cells per microculture well in a 96 well flat bottom 96 well tissue culture plate. All testing of the compounds of this invention or mitogens are done in replicates of 10. The cells are then treated with PHA, Con-A, specific antigens, or buffer only. If in vitro testing is done, varying concentrations of the compounds of this invention or buffer only are added to the cells as well. After treatment with the mitogens and/or compounds of this invention, the cells are incubated for 72 hours. The response of these cells to mitogens and/or the compounds of this invention is assessed using ^14 C-thymidine labeling on the fourth day at a concentration of 0.01 μCi/well. The labeled cells are harvested using a lymphocyte harvestor and placed onto fibrous paper discs. A scintillation cocktail is added to vials contaning the discs and the results are obtained using a LKB-liquid scintillation counter (Model 1216/Rackbeta II). The data is expressed as a ratio of the cpm of the mitogen stimulated group to the control (non-mitogen) treated group=lymphocyte stimulation index (LSI).
The lymphocyte stimulation assay may be performed directly on spleen cells obtained from various strains of mice not treated with the compounds of this invention or on lymphocytes obtained from […]. […] Alternatively, the mice may be treated in vivo with the compounds of this invention by intraperitoneal multi-dose schedules, followed by sacrifice and harvesting spleen lymphocytes. These cells are then tested for their response to polyclonal mitogens or specific antigens used to immunize the mice. In this sytem however, no additional compound is added to the in vitro lymphocyte stimulation assay system.
Two strains of mice, C57BL/6 and BDF1 are treated for seven days with i.p. administration of either 25, 50, 100, 200, or 400 mg/kg of Cpd. 1 or just buffer. This is followed on the eighth day by a lymphocyte stimulation assay.

SMILES: Cc1ccc(C2(O)C(=O)OC3C(O)COC32O)o1.Cc1ccc(C2(O)C(=O)OC3C(O)COC32O)o1.O=C1CCC(=O)O1 (centres unmarked) [Cpd. 1]
- % Lysis ([1]; E + D (TDS effector, no stimulator), E/T 10:1): 0.7%
- % Lysis ([1]; E + D (TDS effector, no stimulator), E/T 30:1): 4.6%
- % Lysis ([1]; E + D (TDS effector, no stimulator), E/T 100:1): 6.6%
- % Lysis ([1]; E + S + D (TDS effector, stimulator), E/T 10:1): 0.5%
- % Lysis ([1]; E + S + D (TDS effector, stimulator), E/T 30:1): 3.6%
- % Lysis ([1]; E + S + D (TDS effector, stimulator), E/T 100:1): 13.4%
- enhancement of CTL activity ([1]; FLC-745 target system (Example 28)): not observed
- % Lysis ([1]; N + D (normal effector, no stimulator), E/T 10:1): -3.5%
- % Lysis ([1]; N + D (normal effector, no stimulator), E/T 30:1): 0.9%
- % Lysis ([1]; N + D (normal effector, no stimulator), E/T 100:1): 13.9%
- % Lysis ([1]; N + S + D (normal effector, stimulator), E/T 10:1): -1.1%
- % Lysis ([1]; N + S + D (normal effector, stimulator), E/T 30:1): -0.8%
- % Lysis ([1]; N + S + D (normal effector, stimulator), E/T 100:1): 5.8%
- dissolution [2]: dissolves completely
- DNA synthesis of spleen cell lymphocytes ([3]; 400 mg/kg, compared to 200 mg/kg): suppress DNA synthesis
- lymphocyte DNA synthesis, PHA and Con-A ([3]; 50, 100 and 200 mg/kg i.p.): tend to stimulate lymphocyte DNA synthesis
- Lymphocyte Stimulation Index ([4]; 50 mg/kg i.p., day 13, BSA 0 μg/well): 16.5
- Lymphocyte Stimulation Index ([4]; 50 mg/kg i.p., day 13, BSA 0.01 μg/well): 19.9
- Lymphocyte Stimulation Index ([4]; 50 mg/kg i.p., day 13, BSA 0.1 μg/well): 23.1
- Lymphocyte Stimulation Index ([4]; 50 mg/kg i.p., day 13, BSA 0.5 μg/well): 22.9
- Lymphocyte Stimulation Index ([4]; 50 mg/kg i.p., day 13, BSA 1 μg/well): 18.2
- Lymphocyte Stimulation Index ([4]; 50 mg/kg i.p., day 19, BSA 0 μg/well): .26
- Lymphocyte Stimulation Index ([4]; 50 mg/kg i.p., day 19, BSA 0.01 μg/well): 2.33
- Lymphocyte Stimulation Index ([4]; 50 mg/kg i.p., day 19, BSA 0.1 μg/well): 2.27
- Lymphocyte Stimulation Index ([4]; 50 mg/kg i.p., day 19, BSA 0.5 μg/well): 2.37
- Lymphocyte Stimulation Index ([4]; 50 mg/kg i.p., day 19, BSA 1.0 μg/well): 2.63
- DNA synthesis compared to controls ([4]; 50 mg/kg, day 13): significant stimulation of DNA synthesis
- DNA synthesis effect ([4]; 50 mg/kg, day 19): waned
- Lymphocyte Stimulation Index ([4]; 100 mg/kg i.p., day 13, BSA 0 μg/well): 3.22
- Lymphocyte Stimulation Index ([4]; 100 mg/kg i.p., day 13, BSA 0.01 μg/well): 9.8
- Lymphocyte Stimulation Index ([4]; 100 mg/kg i.p., day 13, BSA 0.1 μg/well): 11.9
- Lymphocyte Stimulation Index ([4]; 100 mg/kg i.p., day 13, BSA 0.5 μg/well): 12.3
- Lymphocyte Stimulation Index ([4]; 100 mg/kg i.p., day 13, BSA 1 μg/well): 10.2
- Lymphocyte Stimulation Index ([4]; 100 mg/kg i.p., day 19, BSA 0 μg/well): 4.1
- Lymphocyte Stimulation Index ([4]; 100 mg/kg i.p., day 19, BSA 0.01 μg/well): 3.79
- Lymphocyte Stimulation Index ([4]; 100 mg/kg i.p., day 19, BSA 0.1 μg/well): 2.68
- Lymphocyte Stimulation Index ([4]; 100 mg/kg i.p., day 19, BSA 0.5 μg/well): 2.03
- Lymphocyte Stimulation Index ([4]; 100 mg/kg i.p., day 19, BSA 1.0 μg/well): .26
- Lymphocyte Stimulation Index ([4]; 200 mg/kg i.p., day 13, BSA 0 μg/well): 10.6
- Lymphocyte Stimulation Index ([4]; 200 mg/kg i.p., day 13, BSA 0.01 μg/well): 14.1
- Lymphocyte Stimulation Index ([4]; 200 mg/kg i.p., day 13, BSA 0.1 μg/well): 15.8
- Lymphocyte Stimulation Index ([4]; 200 mg/kg i.p., day 13, BSA 0.5 μg/well): 13.8
- Lymphocyte Stimulation Index ([4]; 200 mg/kg i.p., day 13, BSA 1 μg/well): 14.0
- Lymphocyte Stimulation Index ([4]; 200 mg/kg i.p., day 19, BSA 0 μg/well): 0.42
- Lymphocyte Stimulation Index ([4]; 200 mg/kg i.p., day 19, BSA 0.01 μg/well): 2.94
- Lymphocyte Stimulation Index ([4]; 200 mg/kg i.p., day 19, BSA 0.1 μg/well): 2.82
- Lymphocyte Stimulation Index ([4]; 200 mg/kg i.p., day 19, BSA 0.5 μg/well): 2.56
- Lymphocyte Stimulation Index ([4]; 200 mg/kg i.p., day 19, BSA 1.0 μg/well): 2.12
- Lymphocyte Stimulation Index ([4]; 400 mg/kg i.p., day 13, BSA 0 μg/well): 10.9
- Lymphocyte Stimulation Index ([4]; 400 mg/kg i.p., day 13, BSA 0.01 μg/well): 13.7
- Lymphocyte Stimulation Index ([4]; 400 mg/kg i.p., day 13, BSA 0.1 μg/well): 12.8
- Lymphocyte Stimulation Index ([4]; 400 mg/kg i.p., day 13, BSA 0.5 μg/well): 12.3
- Lymphocyte Stimulation Index ([4]; 400 mg/kg i.p., day 13, BSA 1 μg/well): 13.8
- Lymphocyte Stimulation Index ([4]; 400 mg/kg i.p., day 19, BSA 0 μg/well): 5.0
- Lymphocyte Stimulation Index ([4]; 400 mg/kg i.p., day 19, BSA 0.01 μg/well): 3.26
- Lymphocyte Stimulation Index ([4]; 400 mg/kg i.p., day 19, BSA 0.1 μg/well): 2.89
- Lymphocyte Stimulation Index ([4]; 400 mg/kg i.p., day 19, BSA 0.5 μg/well): 1.94
- Lymphocyte Stimulation Index ([4]; 400 mg/kg i.p., day 19, BSA 1.0 μg/well): 1.04
- Con-A response ([5]; 400 mg/kg i.p.): slight suppression of the Con-A response
- PHA response ([5]; 400 mg/kg i.p.): strong suppression of the PHA response
- T-lymphocyte proliferation, PHA ([5]; 50 and 100 mg/kg i.p.): stimulation of T-lymphocyte proliferation
- Con-A response ([5]; between 50 and 100 mg/kg i.p.): significantly increased
